The text below walks through data of patent publication US20090170880A1, “Methods and Means for the Treatment of Cancer” (priority 2007, published 2009).

In one data set the target is T1, murine Bcrp1 (Mus musculus, UniProt Q7TMS5).
T1 construct: expressed in transfected cells; host or cells: MDCKII (canine kidney) cells transduced with murine Bcrp1
T1 sequence (Q7TMS5 1-657): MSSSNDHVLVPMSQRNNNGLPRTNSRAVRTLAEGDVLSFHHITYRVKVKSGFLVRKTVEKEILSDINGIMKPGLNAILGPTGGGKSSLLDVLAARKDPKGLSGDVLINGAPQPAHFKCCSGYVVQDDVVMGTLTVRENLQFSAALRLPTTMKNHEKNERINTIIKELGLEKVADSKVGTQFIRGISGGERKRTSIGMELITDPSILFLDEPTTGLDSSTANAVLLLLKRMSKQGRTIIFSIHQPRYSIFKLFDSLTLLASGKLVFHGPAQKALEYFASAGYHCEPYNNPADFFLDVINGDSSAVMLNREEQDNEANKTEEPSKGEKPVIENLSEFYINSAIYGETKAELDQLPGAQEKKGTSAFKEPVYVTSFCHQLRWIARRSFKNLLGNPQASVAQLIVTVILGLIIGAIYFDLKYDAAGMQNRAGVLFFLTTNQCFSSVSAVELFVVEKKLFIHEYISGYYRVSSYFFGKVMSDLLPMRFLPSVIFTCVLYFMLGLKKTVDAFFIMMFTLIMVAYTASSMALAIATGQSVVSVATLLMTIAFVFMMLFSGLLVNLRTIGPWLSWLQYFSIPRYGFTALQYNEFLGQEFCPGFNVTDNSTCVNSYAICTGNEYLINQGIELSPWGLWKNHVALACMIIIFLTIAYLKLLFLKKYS
The data set is described as follows: Transwell transport of temozolomide, MDCKII-Bcrp1 cells, without or with inhibitors. In kind it is in vitro ADME. To be noted: 40 μg/ml, MDCK-Bcrp1 versus MDCK parent, zosuquidar 5 μM. The procedure:
The parental LLC pig-kidney (PK1) cell line and sublines transduced with murine Mdr1a or human MDR1 (12) and the parental Madine Darby Canine Kidney (MDCK) and murine Bcrp1 or human BCRP transduced sublines (13) were seeded on Transwell microporous polycarbonate membrane filters (3.0 μm pore size, 24 mm diameter; Costar Corning, N.Y., USA) at a density of 1×10^6 cells per well in 2 ml of MEM medium (Invitrogen Corporation, Carlsbad, Calif.) containing 10% v/v fetal calf serum. Cells were incubated at 37° C. in 5% CO2 for three days with one medium replacement after the first day. Two hours before the start of the experiment the medium in both compartments was replaced with 2 ml of OptiMEM medium (InVitrogen Corp.). At the start of the experiment the medium in the apical or basolateral compartment was replaced with 2 ml of freshly prepared OptiMEM medium containing 40 μg/ml of temozolomide. […] Zosuquidar (LY335979, 5 μM) was always added to the medium when doing experiments with MDCK cell lines to inhibit endogenous canine P-gp. Samples of 50 μl were collected every 30 min, for up to 2 h after start of the experiment. Because temozolomide is instable in medium at 37° C., we replaced one ml of the donor compartment by a freshly prepared aliquot every 30 min. [^3H]-inulin (approximately 7 kBq per well) was added to the same compartment as temozolomide to check the integrity of the cell layer. Wells showing a leakage of more than 1.5% per hour were excluded.
First, we took samples every 30 min for up to 2 h instead of every hour for up to 4 h. Secondly, to maintain adequate temozolomide levels at the donor side throughout the experiment we replaced 1 ml of the 2 ml of medium at the donor side of the transwell at each sampling time by 1 ml of a freshly prepared temozolomide solution in medium.

Data set [1] can be described thus: Plasma exposure of oral temozolomide in mice. Type of data set: in vivo. The following applies: mouse, 100 mg/kg, read-out: AUC0-7 h, plasma. The method, then:
We also established the drug exposure in wild-type (n=18) and Bcrp1/Mdr1ab knockout mice (n=19) receiving an oral dose of 100 mg/kg by gavage. Blood was sampled from the tail at 15, 30 min and 1, 4 and 7 h post drug administration to obtain a full curve from each animal.
Plasma and brain AUC0-7h values and standard errors were calculated by the linear trapezoidal rule using standard equations (14). The plasma half-life of temozolomide was calculated by linear regression analysis after log transformation of the concentration data using Microsoft Excel 2003. The brain-to-plasma ratio was calculated for each individual animal. The two-sided unpaired Student's t-test was used for statistical analysis of AUC values. Bonferroni's test for multiple comparisons was calculated using SPSS (v12.0.1; SPSS Inc, Chicago, Ill., USA) for brain and plasma levels and brain-to-plasma ratios determined at 2 h post temozolomide administration with the inhibitors and for analyzing the results of the in vivo efficacy study.

Another data set concerns U87. Kind of data set: Antitumor response against U87 tumor. To be noted: one single dose of 25 mg/kg, results not shown. Type of data set: in vivo.
For data set [2], the system named is recurrent grade 3 and grade 4 gliomas, GBM. The following applies: cited from earlier work.

Structures are written as SMILES. Where two headings read alike, the source gives them in different places.

Regarding `Cn1nnc2c(C(N)=O)ncn2c1=O` [temozolomide, 8-carbamoyl-3-methyl-[3H]-imidazo[5,1-d]-1,2,3,5-tetrazin-4-one], the “transport of temozolomide by murine Bcrp1” value at murine Bcrp1 is “clear vectorial transport”; on murine Bcrp1 (listed as Temozolomide) it was “evident”. Besides, the AUC(0-t) was determined as 164 ± 4.5 µg·h/mL in data set [1] (Bcrp, Mdr1ab knockout mice) and 154 ± 4.1 µg·h/mL in data set [1] (Wild-type mice). Besides, the antitumor response entry in the data set with U87 was “significant antitumor response”. Besides, the “progression free survival compared to procarbazine” value in data set [2] (patients) is reported as “significantly longer”. Also, the “survival, radiotherapy with concomitant and adjuvant temozolomide versus radiotherapy alone” value in data set [2] (phase III trial) is “significant survival benefit”. The values for the objective response rate in data set [2] (recurrent grade 3 gliomas) and in data set [2] (recurrent grade 4 gliomas) were 35% and 8%, respectively.
